Measured values reported in PubChem BioAssay AID330 (DTP/NCI, 2004).
Inconclusive results and toxic doses are left out.

Tested on: P388 leukemia ip, CD2F1 mice, survival T/C
Experiment: NCI In Vivo Anticancer Drug Screen. Data for tumor model P388 Leukemia (intraperitoneal) in CD2F1 (CDF1) mice
Details: endpoint: median survival time, higher = longer survival
Summary of the method: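 Mice carrying the transplanted tumor received test compound or vehicle. Survival was recorded in each group, and the value is the treated-group measurement divided by that of the vehicle-treated control group.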

[1] = dose: 100.0 mg/kg/injection, schedule: Q01DX009 (ip), vehicle: saline
[2] = dose: 200.0 mg/kg/injection, schedule: Q01DX009 (ip), vehicle: saline
[3] = dose: 60.0 mg/kg/injection, schedule: Q01DX005 (ip), vehicle: Klucel + Tween-80
[4] = dose: 12.5 mg/kg/injection, schedule: Q01DX009 (ip), vehicle: saline

CCc1nc(N)nc(N)c1-c1ccc(N2CCN(C)CC2)cc1
T/C (dose: 50.0 mg/kg/injection, schedule: Q01DX005 (ip), vehicle: saline with Tween-80): 103 % of control
T/C (dose: 100.0 mg/kg/injection, schedule: Q01DX005 (ip), vehicle: saline with Tween-80): 100 % of control
T/C (dose: 200.0 mg/kg/injection, schedule: Q01DX005 (ip), vehicle: saline with Tween-80): 99 % of control

CCOP(O)(=S)OCC.[Sm]
T/C (dose: 100.0 mg/kg/injection, schedule: Q01DX001 (ip), vehicle: Klucel (hydroxypropylcellulose) (HPC)): 88 % of control
T/C (dose: 200.0 mg/kg/injection, schedule: Q01DX001 (ip), vehicle: Klucel (hydroxypropylcellulose) (HPC)): 88 % of control
T/C (dose: 400.0 mg/kg/injection, schedule: Q01DX001 (ip), vehicle: Klucel (hydroxypropylcellulose) (HPC)): 94 % of control

OC(c1ccccc1)C(O)C(c1ccccc1)N1CCCCC1 (stereo not given)
T/C [1]: 92 % of control
T/C [2]: 92 % of control

CCOc1c(N=Nc2ccccc2OC)c(C)nn1C(=S)SC
T/C (dose: 15.0 mg/kg/injection, schedule: Q01DX005 (ip), vehicle: Klucel + Tween-80): 92 % of control
T/C (dose: 30.0 mg/kg/injection, schedule: Q01DX005 (ip), vehicle: Klucel + Tween-80): 92 % of control
T/C [3]: 90 % of control

COC(=O)NC1CC1C(=O)OC (stereo not given)
T/C (dose: 100.0 mg/kg/injection, schedule: Q01DX002 (ip), vehicle: saline): 104 % of control
T/C (dose: 200.0 mg/kg/injection, schedule: Q01DX002 (ip), vehicle: saline): 99 % of control
T/C (dose: 400.0 mg/kg/injection, schedule: Q01DX002 (ip), vehicle: saline): 102 % of control

CCOc1c(N=Nc2ccccc2)c(C)nn1C(N)=S
T/C [3]: 95 % of control
T/C (dose: 120.0 mg/kg/injection, schedule: Q01DX005 (ip), vehicle: Klucel + Tween-80): 102 % of control
T/C (dose: 240.0 mg/kg/injection, schedule: Q01DX005 (ip), vehicle: Klucel + Tween-80): 95 % of control

[Cl][Sb]([Cl])([Cl])([c]1ccccc1)[c]1ccccc1
T/C (dose: 6.25 mg/kg/injection, schedule: Q01DX009 (ip), vehicle: saline): 101 % of control
T/C [4]: 98 % of control
T/C (dose: 25.0 mg/kg/injection, schedule: Q01DX009 (ip), vehicle: saline): 91 % of control

C1OC1CO[C@@H]1CO[C@H]2[C@@H]1OC[C@H]2OCC1CO1 (stereo not given in full)
T/C [4]: 120 % of control
T/C [1]: 194 % of control
T/C (dose: 100.0 mg/kg/injection, schedule: Q01DX009 (ip), vehicle: suspension in saline): 163 % of control
T/C [2]: 192 % of control
T/C (dose: 400.0 mg/kg/injection, schedule: Q01DX009 (ip), vehicle: saline with Tween-80): 213 % of control
T/C (dose: 400.0 mg/kg/injection, schedule: Q01DX009 (ip), vehicle: saline): 94 % of control
T/C (dose: 400.0 mg/kg/injection, schedule: Q01DX009 (ip), vehicle: suspension in saline): 100 % of control
T/C (dose: 400.0 mg/kg/injection, schedule: Q04DX003 (ip), vehicle: saline with Tween-80): 186 % of control
T/C (dose: 600.0 mg/kg/injection, schedule: Q04DX003 (ip), vehicle: saline with Tween-80): 200 % of control

CCCCCCCCCCCCCCCCCc1ccccc1O
T/C (dose: 7.5 mg/kg/injection, schedule: Q01DX009 (ip), vehicle: saline with Tween-80): 91 % of control
T/C (dose: 15.0 mg/kg/injection, schedule: Q01DX009 (ip), vehicle: saline with Tween-80): 94 % of control
T/C (dose: 30.0 mg/kg/injection, schedule: Q01DX009 (ip), vehicle: saline with Tween-80): 116 % of control

CCOC(=O)c1ccc2nc(/N=C/c3ccccc3Cl)sc2c1
T/C (dose: 50.0 mg/kg/injection, schedule: Q01DX009 (ip), vehicle: saline): 105 % of control
T/C [1]: 108 % of control
T/C [2]: 105 % of control

COc1ccc2c3c([nH]c2c1)C(C)=NCC3
T/C (dose: 50.0 mg/kg/injection, schedule: Q01DX005 (ip), vehicle: saline): 100 % of control
T/C (dose: 100.0 mg/kg/injection, schedule: Q01DX005 (ip), vehicle: saline): 105 % of control

C/C(C(=O)NC1CC1)=C(\C)c1ccc(Cl)cc1
T/C (dose: 50.0 mg/kg/injection, schedule: Q04DX002 (ip), vehicle: Klucel (hydroxypropylcellulose) (HPC)): 100 % of control
T/C (dose: 100.0 mg/kg/injection, schedule: Q04DX002 (ip), vehicle: Klucel (hydroxypropylcellulose) (HPC)): 103 % of control
T/C (dose: 200.0 mg/kg/injection, schedule: Q04DX002 (ip), vehicle: Klucel (hydroxypropylcellulose) (HPC)): 102 % of control
